This note sets out measurements from patent US6440948B1, “Thiophene A2A receptor agonists” (CV Therapeutics, Inc., priority 1999, dated 2002).

This assay has as its target T1, A2A receptor (Sus scrofa, UniProt K9IW67).
T1 construct: from tissue; host or cells: pig striatum membranes
In words: affinity for the A2A receptor in a pig striatum membrane prep (displacement of tritiated ZM 241385). Format: binding. Conditions: pig striatal membranes, 2 nM tritiated antagonist ZM 241385, 23° C. for 2h, greater than 5 point curve. The protocol: Compounds of this invention were assayed to determine their affinity for the A2A receptor in a pig striatum membrane prep. Briefly, 0.2 mg of pig striatal membranes were treated with adenosine deaminase (2 U/mL) and 50 mM Tris buffer (pH=7,4) followed by mixing. To the pig membranes was added […] of serially diluted DMSO stock solution of the compounds of this invention at concentrations ranging from 10 nM to 100 μM or the control received […] of DMSO alone, then the: antagonist ZM 241385 in Tris buffer (50 mM, pH of 7.4) was added to achieve a final concentration of 2 nM . After incubation at 23° C. for 2h, then the solutions were filtered using a membrane harvester using multiple washing of the membranes (3x). The filter disks were counted in scintillation cocktail to determine the amount of displacement of tritiated ZM displaced by the compounds of this invention. Greater than a 5 point curve was used to generate Ki's. Compound 13 has a Ki between 1,000 and 10,000 nM.

By Ki is commonly meant a measure of affinity in units of concentration, obtained from inhibition or displacement. A high value points to weaker binding.

T1 sequence (K9IW67 1-409): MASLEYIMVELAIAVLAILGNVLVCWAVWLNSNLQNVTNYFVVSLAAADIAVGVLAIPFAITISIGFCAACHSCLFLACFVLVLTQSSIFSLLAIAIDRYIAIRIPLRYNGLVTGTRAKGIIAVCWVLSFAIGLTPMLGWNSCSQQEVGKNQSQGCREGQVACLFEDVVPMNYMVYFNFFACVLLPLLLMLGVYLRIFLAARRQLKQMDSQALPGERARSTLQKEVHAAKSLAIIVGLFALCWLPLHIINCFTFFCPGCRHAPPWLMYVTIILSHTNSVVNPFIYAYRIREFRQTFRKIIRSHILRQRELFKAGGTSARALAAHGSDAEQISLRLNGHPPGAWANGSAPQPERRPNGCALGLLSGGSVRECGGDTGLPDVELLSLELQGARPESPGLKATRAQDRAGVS

Regarding `Cc1ccc(-c2nc(N)c3ncn([C@@H]4O[C@H](CO)[C@@H](O)[C@H]4O)c3n2)s1` [Compound 13, (4S,2R,3R,5R)-2-[6-Amino-2-(5-methyl(2-thienyl))purin-9-yl]-5-(hydroxymethyl)oxolane-3,4-diol], the Ki lay in the range of 1 to 10 µM.
